What all share (assay): NCI anticancer screen, dose series, 48 h
Experiment [1] has as its system HL-60.
The test system of experiment [2] is MDA-MB-231.
The subject of experiment [3] is EKVX.
Experiment [4] deals with NCI/ADR-RES.
The subject of experiment [5] is LOX IMVI.
The test system of experiment [6] is SN12C.
In experiment [7] the test system is IGROV-1.
Experiment [8] concerns DU-145.
Experiment [9] has as its system CAKI-1.
In experiment [10] the test system is SNB-75.
Experiment [11] relates to RXF 393.
For experiment [12], the system named is SF-295.
The subject of experiment [13] is HT-29.
In experiment [14] the test system is K562.
Experiment [15] relates to HOP-92.
In experiment [16] the test system is A498.
Experiment [17] has as its system SF-268.
The subject of experiment [18] is A549.
Experiment [19] relates to NCI-H522.
Experiment [20] deals with MCF7.

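Tested at 5 concentrations; 48 h exposure; 96-well plates; endpoints linearly interpolated, else capped at highest concentration. GI50 marks 50% less growth.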 Active and inactive are the calls of the source. No stated cut-off is given here; in the data, active = GI50 up to about 1.1 µM and inactive = higher. A value given as a limit tells only on which side of the number the result lay.

`C/C(=C\COc1ccc2ccc(=O)oc2c1)C1=CC(=O)C(C)(C)O1` [GEIPARVARIN]: the GI50 was 2.29 µM (inactive) in experiment [1]; 5.18 µM (inactive) in [2]; 5.64 µM (inactive) in [3]; 2.64 µM (inactive) in experiment [4]; 1.89 µM (inactive) in [5]; 3.94 µM (inactive) in experiment [6]. Further, the GI50 in experiment [7] is 4.63 µM (inactive); in experiment [8], 2.53 µM (inactive); in experiment [9] it was 4.83 µM (inactive); in experiment [10], 5.01 µM (inactive); in [11], 2.01 µM (inactive); in experiment [12], 2.43 µM (inactive). Also, the GI50 is 4.01 µM (inactive) in [13]; 4.39 µM (inactive) in experiment [14]; 3.76 µM (inactive) in experiment [15]; 4.6 µM (inactive) in experiment [16]; 3.93 µM (inactive) in experiment [17]; 7.67 µM (inactive) in experiment [18].

With `CCOC(=O)c1c2ccc(/C=C/c3ccccc3)ccc-2c(C(=O)OCC)c1N`, the GI50 in [1], in [3], in experiment [5], in [7], in experiment [19] and in [9] was > 100 µM (inactive) throughout. For the same compound, the GI50 in experiment [10] was 36.7 µM (inactive); in experiment [11], > 100 µM (inactive); in [12] it was > 100 µM (inactive); in experiment [13], 95.3 µM (inactive); in experiment [14], > 100 µM (inactive); in experiment [15], > 100 µM (inactive). Besides, the GI50 in [16] is 36.1 µM (inactive); in experiment [17], > 100 µM (inactive); in experiment [18], > 100 µM (inactive).

For the compound `CC(C)=C=CC(C)(C)NS(=O)(=O)NC(C)(C)C=C=C(C)C`, the GI50 in experiment [1] is 28.2 µM (inactive); in experiment [3], > 100 µM (inactive); in [4], > 100 µM (inactive); in experiment [5], > 100 µM (inactive); in experiment [6] it was > 100 µM (inactive); in experiment [20], > 100 µM (inactive). Further, the GI50 is > 100 µM (inactive) in experiment [7]; > 100 µM (inactive) in experiment [8]; 56.6 µM (inactive) in experiment [19]; > 100 µM (inactive) in experiment [9]; 47.4 µM (inactive) in experiment [10]; > 100 µM (inactive) in [12]. Moreover, the GI50 is 75.5 µM (inactive) in experiment [13]; 19.8 µM (inactive) in experiment [14]; > 100 µM (inactive) in experiment [15]; > 100 µM (inactive) in experiment [16]; 89.3 µM (inactive) in experiment [17]; 42.1 µM (inactive) in [18].

For `Cc1cc(C)nc(NS(=O)(=O)c2ccc(NC(=O)c3ccc(Cl)c4c(Nc5ccc(S(=O)(=O)Nc6cc(C)on6)cc5)c5ccccc5nc34)cc2)n1`, the GI50 in [1] was 8.95 µM (inactive); in experiment [3] it was 19 µM (inactive); in experiment [5], 15.8 µM (inactive); in experiment [6], 17.9 µM (inactive); in [7], 20.1 µM (inactive); in experiment [19] it was 16.1 µM (inactive). For the same compound, the GI50 in experiment [9] was 15.7 µM (inactive); in experiment [10], > 10 µM (inactive); in [11], 14.3 µM (inactive); in experiment [12] it was 18.2 µM (inactive); in [13], 19.5 µM (inactive); in [14], 20.9 µM (inactive). Also, the GI50 in [15] is 16.3 µM (inactive); in experiment [16], 15.3 µM (inactive); in experiment [17], 15 µM (inactive); in experiment [18], 19.7 µM (inactive).

In the case of `O=C(CC(=O)C(=O)Nc1ccccc1)CC(c1ccccc1)c1c(O)c2ccccc2oc1=O` (stereo not drawn), the GI50 in experiment [1], in experiment [3], in experiment [5], in [7], in experiment [19] and in experiment [9] was > 100 µM (inactive) in each case. The GI50 in experiment [10] was > 100 µM (inactive); in [11] it was > 100 µM (inactive); in experiment [12] it was > 100 µM (inactive); in experiment [13], > 100 µM (inactive); in experiment [14] it was > 100 µM (inactive); in [15], 23.4 µM (inactive). Further, the GI50 in experiment [16], in experiment [17] and in experiment [18] was > 100 µM (inactive) throughout.

For `CSc1nc(C#N)c(/N=C\N(C)C)n1C`, the GI50 in experiment [1], in experiment [2], in experiment [3], in experiment [4], in experiment [5] and in experiment [6] was > 100 µM (inactive) each time. For the same compound, the GI50 in [7], in experiment [8], in experiment [19], in experiment [9], in experiment [11] and in experiment [12] was > 100 µM (inactive) each time. The GI50 in experiment [14], in experiment [15], in experiment [16], in [17] and in experiment [18] was > 100 µM (inactive) in each case.

As for `CCc1cccc(C(C)C)c1NC(=O)C(=O)CC(=O)c1c(C)[n+]([O-])c2ccccc2[n+]1[O-]`, the GI50 in experiment [1], in [3], in experiment [5], in [6], in [7] and in [19] was > 100 µM (inactive) each time. The GI50 in experiment [9], in experiment [10], in experiment [11], in experiment [14], in experiment [15] and in experiment [16] was > 100 µM (inactive) throughout. The GI50 in [17] and in [18] was > 100 µM (inactive) each time.

`O=[N+]([O-])c1cc([N+](=O)[O-])c(Nn2c3ccccc3c3ccccc32)c([N+](=O)[O-])c1`: the GI50 is 3.51 µM (inactive) in [1]; 1.64 µM (inactive) in experiment [3]; 3.24 µM (inactive) in experiment [4]; 1.79 µM (inactive) in [6]; 1.25 µM (inactive) in experiment [20]; 2.18 µM (inactive) in experiment [7]. Moreover, the GI50 in [8] was 4.15 µM (inactive); in experiment [19] it was 0.403 µM (active); in [12], 1.25 µM (inactive); in [13] it was 0.857 µM (active); in [14], 1.14 µM (inactive); in experiment [15], 0.346 µM (active). In addition, the GI50 in [17] was 2.94 µM (inactive); in experiment [18] it was 2.82 µM (inactive).

Consider `O=c1[nH]c(=O)n(C2CC(O)C(CO)O2)cc1OS(=O)(=O)C(F)(F)F` (stereo not drawn), for which the GI50 in [1], in experiment [3], in experiment [5], in experiment [6], in experiment [7] and in [19] was > 100 µM (inactive) throughout. Moreover, the GI50 in [9], in experiment [10], in experiment [11], in experiment [12], in [13] and in experiment [14] was > 100 µM (inactive) in each case. Besides, the GI50 in experiment [15], in experiment [16], in [17] and in experiment [18] was > 100 µM (inactive) in each case.

The values above are taken from ChEMBL document CHEMBL1201862, “PubChem BioAssay data set” (2004).
